Tested on: Schwanniomyces castellii strain ATCC 26077
Assay: Mutagenic treatment, mutants resistant to 2-deoxy-glucose on potato starch agar
Type: cell-based, Schwanniomyces castelli
Conditions: EMS treatment
Protocol: The present invention also relates to the production of a novel strain of Schwanniomyces castellii. The mutant strain Schwanniomyces castellii NCYC 1461 was produced by treating a known strain, Schwanniomyces castellii ATCC 26077 with known mutagenic agents. The survivors were cultured on potato starch agar in the presence of concentrations of deoxyglucose at least as high as 10-^3 molar. […] Accordingly, the selection of the mutant strain is particularly desirable in the production of the above-mentioned culture filtrate having amylolytic enzyme activity. By means of such a selection there is a large proportionate increase in the relative amount of alpha-amylase present in the clarified culture filtrate. This novel strain of Schwanniomyces castellii is available upon request from the Yeast Collection of the National Collection of Yeast Cultures Depository ("NCYC"), Food Research Institute, Norwich, Norfolk, England. The ascession number of that organism in the above-mentioned repository is NCYC 1461. Schwanniomyces castellii strain NCYC 1461 is one of a number of mutant strains of Schwanniomyces castellii that .were produced by way of the above-outlined mutagenic treatment of Schwanniomyces castellii strain ATCC 26077. The particulars of the mutagenic treatments are detailed below in Table III which indicates the time of exposure, the percent survival rate, and the frequency of mutation for both of the treatments employed.

CCOS(C)(=O)=O [EMS]
% Survival (time of exposure 30 min): 66%
Frequency of mutation (time of exposure 30 min): 10^-3
% Survival (time of exposure 60 min): 14%
Frequency of mutation (time of exposure 60 min): 2×10^-4

Source: patent EP0125615B1, “Schwanniomyces castellii strains and brewing process” (LABATT BREWING COMPANY LIMITED, priority 1983, dated 1984)
